Patent US8785457B2 (Cellzome Limited, priority 2009, dated 2014)
Read-outs that look alike come from different tables or passages of the source.

Experiments:
[1] = tested on: S6RP serine-240/244 phosphorylation; assay: In vitro Phospho-S6 cellular assay (pS6RP S240/244) in HEK293T/17 cells; type: cell-based; settings: Homo sapiens, 2 hours, read-out: pS6 IC50
How it was run: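 HEK293T/17 cells were seeded at 40,000 (pS6RP) or 80,000 (pAkt) cells/well in DMEM with 2% FCS. They were exposed to 8 compound concentrations (0.1% DMSO) for 2 h at 37 °C and then lysed. Phosphoprotein was quantified by MesoScale electrochemiluminescence sandwich immunoassay, and the sigmoidal variable-slope dose-response was fitted.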

PI3K delta (PI3 Kd) = biological target: T1, PI3K delta (PI3 Kd) (Homo sapiens, UniProt O00329); assay: kinobeads assay, PI3K delta; type: binding; settings: kinobeads assay, read-out: Inhibition values (IC50) PI3Kd
T1 construct: endogenous in cells; host or cells: Jurkat, clone E6-1 (ATCC TIB-152) cell lysate
How it was run: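 Competitive binding in Jurkat cell lysate (5 mg/ml total protein): test compounds at various concentrations competed with beads bearing immobilized phenylmorpholin-chromen ligand. Bead-bound kinases were eluted and quantified by antibody dot blot with infrared detection; IC50 values came from dose-response curves.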

T1 sequence (O00329 whole entry): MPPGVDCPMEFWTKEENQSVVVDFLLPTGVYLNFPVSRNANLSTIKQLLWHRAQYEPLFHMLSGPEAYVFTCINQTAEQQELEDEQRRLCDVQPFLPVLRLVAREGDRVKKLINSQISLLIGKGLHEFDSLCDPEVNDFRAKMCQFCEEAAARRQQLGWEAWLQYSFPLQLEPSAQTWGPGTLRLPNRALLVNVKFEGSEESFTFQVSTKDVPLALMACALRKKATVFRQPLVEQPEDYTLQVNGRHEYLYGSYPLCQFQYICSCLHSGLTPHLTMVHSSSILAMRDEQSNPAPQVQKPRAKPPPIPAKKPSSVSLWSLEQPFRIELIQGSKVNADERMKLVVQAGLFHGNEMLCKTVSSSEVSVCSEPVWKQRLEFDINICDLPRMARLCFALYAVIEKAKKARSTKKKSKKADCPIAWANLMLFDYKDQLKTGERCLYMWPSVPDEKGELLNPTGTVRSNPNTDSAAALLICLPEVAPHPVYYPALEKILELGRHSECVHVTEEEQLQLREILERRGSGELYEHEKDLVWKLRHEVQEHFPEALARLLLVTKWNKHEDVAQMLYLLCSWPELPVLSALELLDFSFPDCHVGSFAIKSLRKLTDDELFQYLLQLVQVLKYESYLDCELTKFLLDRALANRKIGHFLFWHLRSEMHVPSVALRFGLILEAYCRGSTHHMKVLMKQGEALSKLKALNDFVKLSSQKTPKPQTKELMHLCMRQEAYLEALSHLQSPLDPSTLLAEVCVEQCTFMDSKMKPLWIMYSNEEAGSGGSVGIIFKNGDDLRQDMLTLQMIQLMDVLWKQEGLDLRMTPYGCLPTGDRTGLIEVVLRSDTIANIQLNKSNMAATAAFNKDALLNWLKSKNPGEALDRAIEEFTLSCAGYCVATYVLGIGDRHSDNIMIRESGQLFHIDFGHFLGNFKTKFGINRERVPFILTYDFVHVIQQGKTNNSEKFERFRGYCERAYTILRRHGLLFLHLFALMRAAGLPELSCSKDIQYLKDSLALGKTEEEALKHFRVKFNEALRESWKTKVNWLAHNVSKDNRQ
T1 sequence (P27986 whole entry partner): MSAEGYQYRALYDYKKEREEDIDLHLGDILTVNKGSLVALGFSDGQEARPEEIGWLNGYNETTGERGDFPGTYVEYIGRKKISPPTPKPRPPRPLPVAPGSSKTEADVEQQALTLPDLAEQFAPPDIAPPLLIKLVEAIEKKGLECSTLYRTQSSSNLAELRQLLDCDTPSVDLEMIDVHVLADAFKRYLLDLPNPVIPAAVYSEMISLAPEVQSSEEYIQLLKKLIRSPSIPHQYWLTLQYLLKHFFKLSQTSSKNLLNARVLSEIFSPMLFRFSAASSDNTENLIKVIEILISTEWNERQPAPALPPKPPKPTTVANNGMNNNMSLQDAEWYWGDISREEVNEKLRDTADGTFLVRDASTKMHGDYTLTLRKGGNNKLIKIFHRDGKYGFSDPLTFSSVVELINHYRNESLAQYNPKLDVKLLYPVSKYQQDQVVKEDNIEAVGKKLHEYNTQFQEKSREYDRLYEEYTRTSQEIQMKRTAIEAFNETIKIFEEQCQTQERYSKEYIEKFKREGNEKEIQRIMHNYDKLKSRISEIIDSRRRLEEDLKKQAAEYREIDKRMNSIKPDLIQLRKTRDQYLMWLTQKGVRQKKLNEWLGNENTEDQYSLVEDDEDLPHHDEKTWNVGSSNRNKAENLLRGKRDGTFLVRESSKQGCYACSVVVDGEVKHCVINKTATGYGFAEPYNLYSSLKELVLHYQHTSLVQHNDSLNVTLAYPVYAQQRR

CCNC(=O)Nc1ccc(-c2nc3c(c(N4CCOC[C@@H]4C)n2)CN(C2CCN(C(=O)OC)CC2)C3)cc1F [Example 122, (S)-methyl 4-(2-(4-(3-ethylureido)-3-fluorophenyl)-4-(3-methylmorpholino)-5H-pyrrolo[3,4-d]pyrimidin-6(7H)-yl)piperidine-1-carboxylate]
IC50 [1]: 175 nM | IC50 (PI3K delta (PI3 Kd); Table 6): > 10000 nM

C[C@H]1COCCN1c1nc(-c2ccc(NC(N)=O)cc2)nc2c1CN(C)C2 [Example 71, (S)-1-(4-(6-methyl-4-(3-methylmorpholino)-6,7-dihydro-5H-pyrrolo[3,4-d]pyrimidin-2-yl)phenyl)urea]
IC50 [1]: 690 nM | IC50 (PI3K delta (PI3 Kd); Table 6): 1000 to 10000 nM

CCNC(=O)Nc1ccc(-c2nc3c(c(N4CCOC[C@@H]4C)n2)CCN(C)C3)c(F)c1 [Example 110, (S)-1-ethyl-3-(3-fluoro-4-(7-methyl-4-(3-methylmorpholino)-5,6,7,8-tetrahydropyrido[3,4-d]pyrimidin-2-yl)phenyl)urea]
IC50 [1]: 192 nM | IC50 (PI3K delta (PI3 Kd); Table 6): > 10000 nM

CC(C)C(=O)N1CCc2c(nc(-c3ccc(NC(=O)NC4CC4)cc3)nc2N2CCOC[C@@H]2C)C1 [Example 61, (S)-1-cyclopropyl-3-(4-(7-isobutyryl-4-(3-methylmorpholino)-5,6,7,8-tetrahydropyrido[3,4-d]pyrimidin-2-yl)phenyl)urea]
IC50 [1]: 22 nM | IC50 (PI3K delta (PI3 Kd); Table 4): > 10000 nM | IC50 (PI3K delta (PI3 Kd); Table 6): > 10000 nM

CCOC(=O)N1CCc2c(nc(-c3ccc(NC(=O)NC4CC4)cc3)nc2N2CCOC[C@@H]2C)C1 [Example 78, (S)-ethyl 2-(4-(3-cyclopropylureido)phenyl)-4-(3-methylmorpholino)-5,6-dihydropyrido[3,4-d]pyrimidine-7(8H)-carboxylate]
IC50 [1]: 35 nM | IC50 (PI3K delta (PI3 Kd); Table 6): > 10000 nM

CCNC(=O)Nc1ccc(-c2nc3c(c(N4CCOCC4)n2)CN(C(=O)C(C)(C)C)C3)cc1 [Example 100, 1-ethyl-3-(4-(4-morpholino-6-pivaloyl-6,7-dihydro-5H-pyrrolo[3,4-d]pyrimidin-2-yl)phenyl)urea]
IC50 [1]: 202 nM | IC50 (PI3K delta (PI3 Kd); Table 6): > 10000 nM

CCNC(=O)Nc1ccc(-c2nc3c(c(N4CCOC[C@@H]4C)n2)CCN(C(=O)Cc2cccnc2)C3)cc1 [Example 91, (S)-1-ethyl-3-(4-(4-(3-methylmorpholino)-7-(2-(pyridin-3-yl)acetyl)-5,6,7,8-tetrahydropyrido[3,4-d]pyrimidin-2-yl)phenyl)urea]
IC50 [1]: 105 nM | IC50 (PI3K delta (PI3 Kd); Table 6): > 10000 nM

CCNC(=O)Nc1ccc(-c2nc3c(c(N4CCOC[C@@H]4C)n2)CCN(C(=O)NCC)C3)cc1 [Example 87, (S)—N-ethyl-2-(4-(3-ethylureido)phenyl)-4-(3-methylmorpholino)-5,6-dihydropyrido[3,4-d]pyrimidine-7(8H)-carboxamide]
IC50 [1]: 108 nM | IC50 (PI3K delta (PI3 Kd); Table 6): > 10000 nM

C[C@H]1COCCN1c1nc(-c2ccc(NC(=O)NC3CC3)cc2)nc2c1CCN(C(=O)C(C)(C)C)C2 [Example 64, (S)-1-cyclopropyl-3-(4-(4-(3-methylmorpholino)-7-pivaloyl-5,6,7,8-tetrahydropyrido[3,4-d]pyrimidin-2-yl)phenyl)urea]
IC50 [1]: 30 nM | IC50 (PI3K delta (PI3 Kd); Table 6): > 10000 nM

CCNC(=O)Nc1ccc(-c2nc3c(c(N4CCOCC4)n2)CCN(C)C3)cc1 [Example 93, 1-ethyl-3-(4-(7-methyl-4-morpholino-5,6,7,8-tetrahydropyrido[3,4-d]pyrimidin-2-yl)phenyl)urea]
IC50 [1]: 196 nM | IC50 (PI3K delta (PI3 Kd); Table 6): > 10000 nM

CCNC(=O)Nc1ncc(-c2nc3c(c(N4CCOC[C@@H]4C)n2)CCN(C)C3)s1 [Example 106, (S)-1-ethyl-3-(5-(7-methyl-4-(3-methylmorpholino)-5,6,7,8-tetrahydropyrido[3,4-d]pyrimidin-2-yl)thiazol-2-yl)urea]
IC50 [1]: 294 nM | IC50 (PI3K delta (PI3 Kd); Table 6): > 10000 nM

CCNC(=O)Nc1ccc(-c2nc3c(c(N4CCOCC4)n2)CCN(C(=O)NCC)C3)cc1 [Example 94, N-ethyl-2-(4-(3-ethylureido)phenyl)-4-morpholino-5,6-dihydropyrido[3,4-d]pyrimidine-7(8H)-carboxamide]
IC50 [1]: 565 nM | IC50 (PI3K delta (PI3 Kd); Table 6): > 10000 nM

CCOC(=O)N1Cc2nc(-c3ccc(NC(=O)NC4CC4)c(F)c3)nc(N3CCOC[C@@H]3C)c2C1 [Example 105, (S)-ethyl 2-(4-(3-cyclopropylureido)-3-fluorophenyl)-4-(3-methylmorpholino)-5H-pyrrolo[3,4-d]pyrimidine-6(7H)-carboxylate]
IC50 [1]: 414 nM | IC50 (PI3K delta (PI3 Kd); Table 6): > 10000 nM

CCNC(=O)Nc1ccc(-c2nc3c(c(N4CCOC[C@@H]4C)n2)CCN(C(=O)CO)C3)cc1 [Example 102, (S)-1-ethyl-3-(4-(7-(2-hydroxyacetyl)-4-(3-methylmorpholino)-5,6,7,8-tetrahydropyrido[3,4-d]pyrimidin-2-yl)phenyl)urea]
IC50 [1]: 258 nM | IC50 (PI3K delta (PI3 Kd); Table 6): > 10000 nM

CCNC(=O)Nc1ccc(-c2nc3c(c(N4CCOC[C@@H]4C)n2)CCN(C(=O)C(C)(C)C)C3)cc1 [Example 58, (S)-1-ethyl-3-(4-(4-(3-methylmorpholino)-7-pivaloyl-5,6,7,8-tetrahydropyrido[3,4-d]pyrimidin-2-yl)phenyl)urea]
IC50 [1]: 34 nM | IC50 (PI3K delta (PI3 Kd); Table 4): > 10000 nM | IC50 (PI3K delta (PI3 Kd); Table 6): > 10000 nM

C[C@H]1COCCN1c1nc(-c2ccc(NC(=O)NC3CC3)cc2)nc2c1CN(CC(F)(F)F)C2 [Example 101, (S)-1-cyclopropyl-3-(4-(4-(3-methylmorpholino)-6-(2,2,2-trifluoroethyl)-6,7-dihydro-5H-pyrrolo[3,4-d]pyrimidin-2-yl)phenyl)urea]
IC50 [1]: 252 nM | IC50 (PI3K delta (PI3 Kd); Table 6): > 10000 nM

CCNC(=O)Nc1ccc(-c2nc3c(c(N4CCOC[C@@H]4C)n2)CN(C(=O)OCC)C3)cc1 [Example 90, (S)-ethyl 2-(4-(3-ethylureido)phenyl)-4-(3-methylmorpholino)-5H-pyrrolo[3,4-d]pyrimidine-6(7H)-carboxylate]
IC50 [1]: 83 nM | IC50 (PI3K delta (PI3 Kd); Table 6): > 10000 nM

CCNC(=O)Nc1ccc(-c2nc3c(c(N4CCOC[C@@H]4C)n2)CN(C(=O)OCC)C3)cc1F [Example 103, (S)-ethyl-2-(4-(3-ethylureido)-3-fluorophenyl)-4-(3-methylmorpholino)-5H-pyrrolo[3,4-d]pyrimidine-6(7H)-carboxylate]
IC50 [1]: 207 nM | IC50 (PI3K delta (PI3 Kd); Table 6): > 10000 nM

CCNC(=O)Nc1ccc(-c2nc3c(c(N4CCOC[C@@H]4C)n2)CN(CC(C)C)C3)cc1 [Example 66, (S)-1-ethyl-3-(4-(6-isobutyl-4-(3-methylmorpholino)-6,7-dihydro-5H-pyrrolo[3,4-d]pyrimidin-2-yl)phenyl)urea]
IC50 [1]: 74 nM | IC50 (PI3K delta (PI3 Kd); Table 6): > 10000 nM

CCNC(=O)Nc1ccc(-c2nc3c(c(N4CCOC[C@@H]4C)n2)CCN(C(=O)OCC)C3)cc1 [Example 77, (S)-ethyl 2-(4-(3-ethylureido)phenyl)-4-(3-methylmorpholino)-5,6-dihydropyrido[3,4-d]pyrimidine-7(8H)-carboxylate]
IC50 [1]: 38 nM | IC50 (PI3K delta (PI3 Kd); Table 6): > 10000 nM

CCNC(=O)Nc1ccc(-c2nc3c(c(N4CCOCC4)n2)CCN(C(=O)OCC)C3)cc1 [Example 96, ethyl 2-(4-(3-ethylureido)phenyl)-4-morpholino-5,6-dihydropyrido[3,4-d]pyrimidine-7(8H)-carboxylate]
IC50 [1]: 50 nM | IC50 (PI3K delta (PI3 Kd); Table 6): > 10000 nM

CCNC(=O)Nc1cc(F)c(-c2nc3c(c(N4CCOC[C@@H]4C)n2)CCN(C)C3)cc1F [Example 108, (S)-1-(2,5-difluoro-4-(7-methyl-4-(3-methylmorpholino)-5,6,7,8-tetrahydropyrido[3,4-d]pyrimidin-2-yl)phenyl)-3-ethylurea]
IC50 [1]: 935 nM | IC50 (PI3K delta (PI3 Kd); Table 6): > 10000 nM

CCNC(=O)Nc1ccc(-c2nc3c(c(N4CCOC[C@@H]4C)n2)CN(C(C)C)C3)cc1 [Example 74, (S)-1-ethyl-3-(4-(6-isopropyl-4-(3-methylmorpholino)-6,7-dihydro-5H-pyrrolo[3,4-d]pyrimidin-2-yl)phenyl)urea]
IC50 [1]: 110 nM | IC50 (PI3K delta (PI3 Kd); Table 6): > 10000 nM

CCOC(=O)N1Cc2nc(-c3ccc(NC(=O)NCCF)cc3)nc(N3CCOC[C@@H]3C)c2C1 [Example 120, (S)-ethyl 2-(4-(3-(2-fluoroethyl)ureido)phenyl)-4-(3-methylmorpholino)-5H-pyrrolo[3,4-d]pyrimidine-6(7H)-carboxylate]
IC50 [1]: 25 nM | IC50 (PI3K delta (PI3 Kd); Table 6): > 10000 nM

CC(=O)N1CCc2c(nc(-c3ccc(NC(=O)NC4CC4)cc3)nc2N2CCOC[C@@H]2C)C1 [Example 62, (S)-1-(4-(7-acetyl-4-(3-methylmorpholino)-5,6,7,8-tetrahydropyrido[3,4-d]pyrimidin-2-yl)phenyl)-3-cyclopropylurea]
IC50 [1]: 49 nM | IC50 (PI3K delta (PI3 Kd); Table 4): > 10000 nM | IC50 (PI3K delta (PI3 Kd); Table 6): > 10000 nM

CCNC(=O)Nc1ccc(-c2nc3c(c(N4CCOCC4)n2)CN(C(=O)OCC)C3)cc1 [Example 70, Ethyl 2-(4-(3-ethylureido)phenyl)-4-morpholino-5H-pyrrolo[3,4-d]pyrimidine-6(7H)-carboxylate]
IC50 [1]: 133 nM | IC50 (PI3K delta (PI3 Kd); Table 6): 1000 to 10000 nM

CC(C)CN1Cc2nc(-c3ccc(NC(=O)NC4CC4)cc3)nc(N3CCOC[C@@H]3C)c2C1 [Example 65, (S)-1-cyclopropyl-3-(4-(6-isobutyl-4-(3-methylmorpholino)-6,7-dihydro-5H-pyrrolo[3,4-d]pyrimidin-2-yl)phenyl)urea]
IC50 [1]: 149 nM | IC50 (PI3K delta (PI3 Kd); Table 6): > 10000 nM

CCNC(=O)Nc1ccc(-c2nc3c(c(N4CCOC[C@@H]4C)n2)CCN(CC(C)C)C3)cc1.O=CO [Example 76, (S)-1-ethyl-3-(4-(7-isobutyl-4-(3-methylmorpholino)-5,6,7,8-tetrahydropyrido[3,4-d]pyrimidin-2-yl)phenyl)urea formate]
IC50 [1]: 95 nM | IC50 (PI3K delta (PI3 Kd); Table 6): > 10000 nM
